Reference: patent US12252524B2, “GIP/GLP1 co-agonist compounds” (Eli Lilly and Company, priority 2018, dated 2025)
Numbered stars: 1 amine (or outer) side, 2 acyl side, 3 side chain; on linkers, the order of the positions; unused ones are H or OH. Square brackets hold non-standard residues; d marks the D form. Side chains are listed from the residue outwards. Peptide text beside a SMILES is read from it. * marks the point of attachment. C20 diacid = O=C(O)CCCCCCCCCCCCCCCCCCC(=O)*; C18 diacid = O=C(O)CCCCCCCCCCCCCCCCC(=O)*; αMePhe(2-F) = C[C@](N)(Cc1ccccc1F)C(=O)O; γGlu = O=C(O)[C@H](CCC(=O)[*:2])N[*:1]; αMeY = C[C@](N)(Cc1ccc(O)cc1)C(=O)O; αMeF = C[C@](N)(Cc1ccccc1)C(=O)O; Aad = N[C@@H](CCCC(=O)O)C(=O)O; αMeL = CC(C)C[C@](C)(N)C(=O)O; Orn = NCCC[C@H](N)C(=O)O; AEEA = NCCOCCOCC(=O)O; Aib = CC(C)(N)C(=O)O

Key:
[1] = molecular target: human GLP-1 receptor (GLP-1R) (Homo sapiens, UniProt P43220); test: cAMP pharmacological functional assay in presence of casein, hGLP-1R; assay type: cell-based; details: HEK293 cells expressing hGLP-1R, 0.1% Casein, geometric mean; read-out: hGLP1R cAMP Rel EC50 nM (SEM, n)
human GIP receptor = molecular target: T1, human GIP receptor (Homo sapiens, UniProt P48546); test: [125I]-GIP binding (SPA), human GIP receptor; details: read-out: hGIPR Ki, nM (SEM, n)
T1 construct: expressed in transfected cells; crude membranes
T1 sequence (P48546 22-466): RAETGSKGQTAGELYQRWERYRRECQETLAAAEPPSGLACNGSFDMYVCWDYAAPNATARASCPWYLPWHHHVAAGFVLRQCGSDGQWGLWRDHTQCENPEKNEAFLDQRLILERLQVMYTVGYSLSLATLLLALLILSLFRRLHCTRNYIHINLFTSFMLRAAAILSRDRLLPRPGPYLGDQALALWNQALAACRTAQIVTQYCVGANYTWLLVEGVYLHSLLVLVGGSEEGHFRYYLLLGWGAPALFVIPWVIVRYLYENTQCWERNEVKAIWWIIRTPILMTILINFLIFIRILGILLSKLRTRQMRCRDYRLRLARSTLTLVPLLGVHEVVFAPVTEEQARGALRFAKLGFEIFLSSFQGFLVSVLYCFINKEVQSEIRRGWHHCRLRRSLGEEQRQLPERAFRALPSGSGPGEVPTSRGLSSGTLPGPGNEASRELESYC

human Gcg receptor = molecular target: T2, human Gcg receptor (Homo sapiens, UniProt P47871); test: [125I]-Glucagon binding (SPA), human Gcg receptor; details: read-out: hGLcgR Ki, nM (SEM, n)
T2 construct: expressed in transfected cells; crude membranes
Method in brief: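 Scintillation counts are taken after membranes and WGA beads incubate and settle for 12 hours at room temperature. Buffer is 25 mM HEPES, pH 7.4, with CaCl2, MgCl2, bacitracin and Tween-20. Ki values, from four-parameter IC50 fits, are geometric means over independent days.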

human GLP-1R = human GLP-1R (Homo sapiens, UniProt P43220); test: [125I]-GLP-1 binding (SPA), human GLP-1 receptor; parameters: expressed in transfected cells; crude membranes; details: read-out: hGLP1R Ki, (nM) (SEM, n)
Method in brief: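 Crude-membrane binding assay; one membrane prep included 1 mM MgCl2 and 25 units/ml DNAse I during lysis. Assay buffer at pH 7.4 contains 0.1% (w/v) bacitracin and 0.003% (w/v) TWEEN-20. Ki is reported as geometric mean.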

[2] = molecular target: T3, gastric inhibitory peptide receptor (GIPR) (Homo sapiens, UniProt P48546); test: cAMP pharmacological functional assay in presence of casein, hGIPR; assay type: cell-based; details: HEK293 cells expressing hGIPR, 0.1% Casein, geometric mean; read-out: hGIPR cAMP Rel EC50 nM (SEM, n)
T3 sequence (P48546 22-466): T1 sequence (P48546 22-466)

T2 sequence (P47871 26-477): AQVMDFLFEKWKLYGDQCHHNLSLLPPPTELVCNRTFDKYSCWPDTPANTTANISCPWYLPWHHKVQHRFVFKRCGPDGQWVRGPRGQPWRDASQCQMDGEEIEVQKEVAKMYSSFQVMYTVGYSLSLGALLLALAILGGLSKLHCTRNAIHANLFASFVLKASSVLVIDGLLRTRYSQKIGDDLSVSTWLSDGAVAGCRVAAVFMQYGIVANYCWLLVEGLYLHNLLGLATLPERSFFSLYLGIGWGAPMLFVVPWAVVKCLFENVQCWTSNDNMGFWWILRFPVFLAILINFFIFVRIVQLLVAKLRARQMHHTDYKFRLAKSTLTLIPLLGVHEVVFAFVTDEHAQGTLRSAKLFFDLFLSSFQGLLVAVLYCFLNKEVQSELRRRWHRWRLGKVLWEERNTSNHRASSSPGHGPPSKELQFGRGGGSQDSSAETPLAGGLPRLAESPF
Sequence of human GLP-1 receptor (GLP-1R) (P43220 24-463): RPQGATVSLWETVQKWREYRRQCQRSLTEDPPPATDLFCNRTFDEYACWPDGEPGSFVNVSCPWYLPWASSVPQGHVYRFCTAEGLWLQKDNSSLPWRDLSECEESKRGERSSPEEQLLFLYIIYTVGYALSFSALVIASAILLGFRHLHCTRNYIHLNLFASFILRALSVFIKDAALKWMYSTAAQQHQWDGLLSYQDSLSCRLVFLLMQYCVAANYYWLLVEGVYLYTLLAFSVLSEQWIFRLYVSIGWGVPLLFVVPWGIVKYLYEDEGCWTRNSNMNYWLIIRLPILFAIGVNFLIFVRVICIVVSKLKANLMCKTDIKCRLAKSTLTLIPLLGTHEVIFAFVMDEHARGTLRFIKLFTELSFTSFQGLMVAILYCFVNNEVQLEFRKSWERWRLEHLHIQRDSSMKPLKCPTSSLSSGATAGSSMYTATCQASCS
Sequence of human GLP-1R (P43220 24-463): as above

Row | Compound | EC50 [1] | Ki (human GIP receptor) | Ki (human Gcg receptor) | Ki (human GLP-1R) | EC50 [2]
1 | CC[C@H](C)[C@H](NC(=O)[C@H](CC(C)C)NC(=O)[C@H](Cc1ccc(O)cc1)NC(=O)[C@H](CCC(=O)O)NC(=O)[C@@H](NC(=O)[C@H](Cc1ccccc1)NC(=O)[C@H](CCCC(=O)O)NC(=O)C(C)(C)NC(=O)[C@H](CCC(N)=O)NC(=O)[C@H](C)NC(=O)[C@H](CCCCNC(=O)COCCOCCNC(=O)COCCOCCNC(=O)CC[C@H](NC(=O)CCCCCCCCCCCCCCCCCCC(=O)O)C(=O)O)NC(=O)[C@H](CCCCN)NC(=O)[C@H](CC(=O)O)NC(=O)[C@H](CC(C)C)NC(=O)[C@](C)(CC(C)C)NC(=O)[C@@H](NC(=O)[C@H](CO)NC(=O)[C@H](Cc1ccc(O)cc1)NC(=O)[C@H](CC(=O)O)NC(=O)[C@H](CO)NC(=O)[C@@H](NC(=O)[C@](C)(Cc1ccccc1)NC(=O)[C@@H](NC(=O)CNC(=O)[C@H](CCC(=O)O)NC(=O)C(C)(C)NC(=O)[C@@H](N)Cc1ccc(O)cc1)[C@@H](C)O)[C@@H](C)O)[C@@H](C)CC)[C@@H](C)CC)C(=O)N[C@@H](CCC(=O)O)C(=O)NCC(=O)NCC(=O)N1CCC[C@H]1C(=O)N[C@@H](CO)C(=O)N[C@@H](CO)C(=O)NCC(=O)N[C@@H](C)C(=O)N1CCC[C@H]1C(=O)N1CCC[C@H]1C(=O)N1CCC[C@H]1C(=O)N[C@@H](CO)C(N)=O [Example 137] (H-Y[Aib]EGT[αMeF]TSDYSI[αMeL]LDKK([AEEA-AEEA-γGlu-C20 diacid])AQ[Aib][Aad]FIEYLIEGGPSSGAPPPS-NH2) | 0.0397 nM | 0.0373 nM | 98.1 nM | 1.24 nM | 0.0333 nM
2 | CC[C@H](C)[C@H](NC(=O)[C@H](CC(C)C)NC(=O)[C@H](Cc1ccc(O)cc1)NC(=O)[C@@H](CCC(=O)O)NC(=O)[C@@H](NC(=O)[C@H](Cc1ccccc1)NC(=O)[C@H](CCC(=O)O)NC(=O)C(C)(C)NC(=O)[C@H](CCC(N)=O)NC(=O)[C@H](C)NC(=O)[C@H](CCCCNC(=O)COCCOCCNC(=O)COCCOCCNC(=O)CC[C@H](NC(=O)CCCCCCCCCCCCCCCCC(=O)O)C(=O)O)NC(=O)[C@H](CCC(=O)O)NC(=O)[C@H](CC(=O)O)NC(=O)[C@H](CC(C)C)NC(=O)[C@](C)(CC(C)C)NC(=O)[C@@H](NC(=O)[C@H](CO)NC(=O)[C@H](Cc1ccc(O)cc1)NC(=O)[C@H](CC(=O)O)NC(=O)[C@H](CO)NC(=O)[C@@H](NC(=O)[C@](C)(Cc1ccccc1F)NC(=O)[C@@H](NC(=O)CNC(=O)[C@H](CCC(=O)O)NC(=O)C(C)(C)NC(=O)[C@@H](N)Cc1ccc(O)cc1)[C@@H](C)O)[C@@H](C)O)[C@@H](C)CC)[C@@H](C)CC)C(=O)N[C@@H](CCC(=O)O)C(=O)NCC(=O)NCC(=O)N1CCC[C@H]1C(=O)N[C@@H](CO)C(=O)N[C@@H](CO)C(=O)NCC(N)=O [Example 219] (H-Y[Aib]EGT[αMePhe(2-F)]TSDYSI[αMeL]LDEK([AEEA-AEEA-γGlu-C18 diacid])AQ[Aib]EFI[dE]YLIEGGPSSG-NH2) | 0.0403 nM | 0.0689 nM | 373 nM | 2.01 nM | 0.0341 nM
3 | CC[C@H](C)[C@H](NC(=O)[C@H](CC(C)C)NC(=O)[C@](C)(Cc1ccc(O)cc1)NC(=O)[C@@H](CCC(=O)O)NC(=O)[C@@H](NC(=O)[C@H](Cc1ccccc1)NC(=O)[C@@H](NC(=O)C(C)(C)NC(=O)[C@H](CCC(N)=O)NC(=O)[C@H](C)NC(=O)[C@H](CCCCNC(=O)COCCOCCNC(=O)COCCOCCNC(=O)CC[C@H](NC(=O)CCCCCCCCCCCCCCCCC(=O)O)C(=O)O)NC(=O)[C@H](CCCN)NC(=O)[C@H](CC(=O)O)NC(=O)[C@H](CC(C)C)NC(=O)[C@](C)(CC(C)C)NC(=O)[C@@H](NC(=O)[C@H](CO)NC(=O)[C@@H](NC(=O)[C@H](CC(=O)O)NC(=O)[C@H](CO)NC(=O)[C@@H](NC(=O)[C@](C)(Cc1ccccc1F)NC(=O)[C@@H](NC(=O)CNC(=O)[C@H](CCC(=O)O)NC(=O)C(C)(C)NC(=O)[C@@H](N)Cc1ccc(O)cc1)[C@@H](C)O)[C@@H](C)O)C(C)C)[C@@H](C)CC)[C@@H](C)O)[C@@H](C)CC)C(=O)N[C@@H](CCC(=O)O)C(=O)NCC(=O)NCC(=O)N1CCC[C@H]1C(=O)N[C@@H](CO)C(=O)N[C@@H](CO)C(=O)NCC(=O)N[C@@H](C)C(=O)N1CCC[C@H]1C(=O)N1CCC[C@H]1C(=O)N1CCC[C@H]1C(=O)N[C@@H](CO)C(N)=O [Example 241] (H-Y[Aib]EGT[αMePhe(2-F)]TSDVSI[αMeL]LD[Orn]K([AEEA-AEEA-γGlu-C18 diacid])AQ[Aib]TFI[dE][αMeY]LIEGGPSSGAPPPS-NH2; N-terminus assumed) | 0.0175 nM | 0.042 nM | 167 nM | 0.799 nM | 0.0257 nM
4 | CC[C@H](C)[C@H](NC(=O)[C@H](CC(C)C)NC(=O)[C@H](Cc1ccc(O)cc1)NC(=O)[C@@H](CCC(=O)O)NC(=O)[C@@H](NC(=O)[C@H](Cc1ccccc1)NC(=O)[C@H](CCC(=O)O)NC(=O)C(C)(C)NC(=O)[C@H](CCC(N)=O)NC(=O)[C@H](C)NC(=O)[C@H](CCCCNC(=O)COCCOCCNC(=O)COCCOCCNC(=O)CC[C@H](NC(=O)CCCCCCCCCCCCCCCCCCC(=O)O)C(=O)O)NC(=O)[C@H](CCCN)NC(=O)[C@H](CC(=O)O)NC(=O)[C@H](CC(C)C)NC(=O)C(C)(C)NC(=O)[C@@H](NC(=O)[C@H](CO)NC(=O)[C@H](Cc1ccc(O)cc1)NC(=O)[C@H](CC(=O)O)NC(=O)[C@H](CO)NC(=O)[C@@H](NC(=O)[C@](C)(Cc1ccccc1F)NC(=O)[C@@H](NC(=O)CNC(=O)[C@H](CCC(=O)O)NC(=O)C(C)(C)NC(=O)[C@@H](N)Cc1ccc(O)cc1)[C@@H](C)O)[C@@H](C)O)[C@@H](C)CC)[C@@H](C)CC)C(=O)N[C@@H](CCC(=O)O)C(=O)NCC(=O)NCC(=O)N1CCC[C@H]1C(=O)N[C@@H](CO)C(=O)N[C@@H](CO)C(=O)NCC(=O)N[C@@H](C)C(=O)N1CCC[C@H]1C(=O)N1CCC[C@H]1C(=O)N1CCC[C@H]1C(=O)N[C@@H](CO)C(N)=O [Example 250] (H-Y[Aib]EGT[αMePhe(2-F)]TSDYSI[Aib]LD[Orn]K([AEEA-AEEA-γGlu-C20 diacid])AQ[Aib]EFI[dE]YLIEGGPSSGAPPPS-NH2) | 0.0306 nM | 0.0171 nM | 198 nM | 1.72 nM | 0.0376 nM
5 | CC[C@H](C)[C@H](NC(=O)[C@H](CC(C)C)NC(=O)[C@H](Cc1ccc(O)cc1)NC(=O)[C@H](CCC(=O)O)NC(=O)[C@@H](NC(=O)[C@H](Cc1ccccc1)NC(=O)[C@H](C)NC(=O)C(C)(C)NC(=O)[C@H](CCC(N)=O)NC(=O)[C@H](C)NC(=O)[C@H](CCCCNC(=O)COCCOCCNC(=O)COCCOCCNC(=O)CC[C@H](NC(=O)CCCCCCCCCCCCCCCCCCC(=O)O)C(=O)O)NC(=O)[C@H](CCCCN)NC(=O)[C@H](CC(=O)O)NC(=O)[C@H](CC(C)C)NC(=O)[C@H](CC(C)C)NC(=O)[C@@H](NC(=O)[C@](C)(CO)NC(=O)[C@H](Cc1ccc(O)cc1)NC(=O)[C@H](CC(=O)O)NC(=O)[C@H](CO)NC(=O)[C@@H](NC(=O)[C@H](Cc1ccccc1)NC(=O)[C@@H](NC(=O)CNC(=O)[C@H](CCC(=O)O)NC(=O)C(C)(C)NC(=O)[C@@H](N)Cc1ccc(O)cc1)[C@@H](C)O)[C@@H](C)O)[C@@H](C)CC)[C@@H](C)CC)C(=O)N[C@@H](CCC(=O)O)C(=O)NCC(=O)NCC(=O)N1CCC[C@H]1C(=O)N[C@@H](CO)C(=O)N[C@@H](CO)C(=O)NCC(=O)N[C@@H](C)C(=O)N1CCC[C@H]1C(=O)N1CCC[C@H]1C(=O)N1CCC[C@H]1C(=O)N[C@@H](CO)C(N)=O [Example 68] | 0.153 nM | 0.0243 nM | 99.2 nM | 1.58 nM | 0.0881 nM
